molecular target: CDK2/Cyclin A2 (Homo sapiens) (UniProt P24941+P20248); assay: Inhibition of human CDK2/cyclin A assessed as residual activity at 1 uM relative to control; type: protein-complex assay

SMILES	Activity [%]
COc1ccc(-c2nc3cc(-c4csc(C(=O)NCC(C)(C)C)c4)cnc3[nH]2)cc1	98
COc1ccc(-c2nc3cc(-c4csc(C(=O)NCC(C)C)c4)cnc3[nH]2)cc1	103
COc1ccc(-c2nc3cc(-c4csc(C(=O)NCCC(C)C)c4)cnc3[nH]2)cc1	92

molecular target: T1, Phosphatidylinositol 3-kinase C2 domain-containing subunit gamma (Homo sapiens) (UniProt O75747); assay: Inhibition of human PI3KC2gamma assessed as residual activity at 1 uM relative to control
T1 sequence (whole entry): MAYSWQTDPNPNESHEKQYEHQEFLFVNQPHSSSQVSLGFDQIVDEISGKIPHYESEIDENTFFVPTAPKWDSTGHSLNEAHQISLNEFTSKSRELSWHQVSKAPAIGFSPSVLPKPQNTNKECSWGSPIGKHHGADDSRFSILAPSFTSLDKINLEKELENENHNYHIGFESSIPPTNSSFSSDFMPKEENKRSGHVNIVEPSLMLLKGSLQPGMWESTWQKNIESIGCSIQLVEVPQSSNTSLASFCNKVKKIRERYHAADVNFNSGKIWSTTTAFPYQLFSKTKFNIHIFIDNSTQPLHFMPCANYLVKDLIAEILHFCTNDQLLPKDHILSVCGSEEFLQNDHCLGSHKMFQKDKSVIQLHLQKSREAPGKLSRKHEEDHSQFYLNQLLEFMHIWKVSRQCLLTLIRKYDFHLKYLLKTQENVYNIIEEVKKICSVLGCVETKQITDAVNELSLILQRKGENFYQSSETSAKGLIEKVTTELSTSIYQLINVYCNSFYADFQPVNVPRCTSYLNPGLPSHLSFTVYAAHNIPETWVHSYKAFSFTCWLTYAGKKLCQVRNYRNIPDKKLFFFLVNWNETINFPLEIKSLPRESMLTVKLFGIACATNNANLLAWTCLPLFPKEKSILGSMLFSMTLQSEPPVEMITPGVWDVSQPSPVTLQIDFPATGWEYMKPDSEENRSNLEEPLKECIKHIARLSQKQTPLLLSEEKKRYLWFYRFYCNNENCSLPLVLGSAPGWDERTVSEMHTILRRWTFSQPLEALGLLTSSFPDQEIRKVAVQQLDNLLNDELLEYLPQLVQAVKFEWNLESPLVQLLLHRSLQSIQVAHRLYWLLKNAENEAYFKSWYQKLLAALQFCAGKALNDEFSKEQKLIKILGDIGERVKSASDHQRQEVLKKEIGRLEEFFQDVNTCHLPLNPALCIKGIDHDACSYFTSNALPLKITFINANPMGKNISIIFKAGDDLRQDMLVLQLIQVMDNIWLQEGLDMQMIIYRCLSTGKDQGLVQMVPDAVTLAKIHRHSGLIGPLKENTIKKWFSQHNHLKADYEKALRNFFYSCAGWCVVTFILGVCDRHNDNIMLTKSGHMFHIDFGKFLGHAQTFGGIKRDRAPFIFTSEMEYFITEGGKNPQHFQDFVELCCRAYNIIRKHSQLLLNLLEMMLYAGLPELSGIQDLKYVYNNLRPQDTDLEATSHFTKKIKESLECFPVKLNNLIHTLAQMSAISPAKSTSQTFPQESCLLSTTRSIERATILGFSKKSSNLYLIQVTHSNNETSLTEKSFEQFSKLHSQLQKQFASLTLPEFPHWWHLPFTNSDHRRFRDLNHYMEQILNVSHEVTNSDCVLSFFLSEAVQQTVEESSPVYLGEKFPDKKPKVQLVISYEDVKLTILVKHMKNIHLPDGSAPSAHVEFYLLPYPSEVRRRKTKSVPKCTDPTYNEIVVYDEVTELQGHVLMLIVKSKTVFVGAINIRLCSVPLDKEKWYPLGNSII

SMILES	Activity [%]
COc1ccc(-c2nc3cc(-c4csc(C(=O)NCC(C)(C)C)c4)cnc3[nH]2)cc1	94
COc1ccc(-c2nc3cc(-c4csc(C(=O)NCC(C)C)c4)cnc3[nH]2)cc1	92
COc1ccc(-c2nc3cc(-c4csc(C(=O)NCCC(C)C)c4)cnc3[nH]2)cc1	94

molecular target: T2, Tyrosine-protein kinase JAK3 (Homo sapiens) (UniProt P52333); assay: Inhibition of human JAK3 assessed as residual activity at 1 uM relative to control
T2 sequence (whole entry): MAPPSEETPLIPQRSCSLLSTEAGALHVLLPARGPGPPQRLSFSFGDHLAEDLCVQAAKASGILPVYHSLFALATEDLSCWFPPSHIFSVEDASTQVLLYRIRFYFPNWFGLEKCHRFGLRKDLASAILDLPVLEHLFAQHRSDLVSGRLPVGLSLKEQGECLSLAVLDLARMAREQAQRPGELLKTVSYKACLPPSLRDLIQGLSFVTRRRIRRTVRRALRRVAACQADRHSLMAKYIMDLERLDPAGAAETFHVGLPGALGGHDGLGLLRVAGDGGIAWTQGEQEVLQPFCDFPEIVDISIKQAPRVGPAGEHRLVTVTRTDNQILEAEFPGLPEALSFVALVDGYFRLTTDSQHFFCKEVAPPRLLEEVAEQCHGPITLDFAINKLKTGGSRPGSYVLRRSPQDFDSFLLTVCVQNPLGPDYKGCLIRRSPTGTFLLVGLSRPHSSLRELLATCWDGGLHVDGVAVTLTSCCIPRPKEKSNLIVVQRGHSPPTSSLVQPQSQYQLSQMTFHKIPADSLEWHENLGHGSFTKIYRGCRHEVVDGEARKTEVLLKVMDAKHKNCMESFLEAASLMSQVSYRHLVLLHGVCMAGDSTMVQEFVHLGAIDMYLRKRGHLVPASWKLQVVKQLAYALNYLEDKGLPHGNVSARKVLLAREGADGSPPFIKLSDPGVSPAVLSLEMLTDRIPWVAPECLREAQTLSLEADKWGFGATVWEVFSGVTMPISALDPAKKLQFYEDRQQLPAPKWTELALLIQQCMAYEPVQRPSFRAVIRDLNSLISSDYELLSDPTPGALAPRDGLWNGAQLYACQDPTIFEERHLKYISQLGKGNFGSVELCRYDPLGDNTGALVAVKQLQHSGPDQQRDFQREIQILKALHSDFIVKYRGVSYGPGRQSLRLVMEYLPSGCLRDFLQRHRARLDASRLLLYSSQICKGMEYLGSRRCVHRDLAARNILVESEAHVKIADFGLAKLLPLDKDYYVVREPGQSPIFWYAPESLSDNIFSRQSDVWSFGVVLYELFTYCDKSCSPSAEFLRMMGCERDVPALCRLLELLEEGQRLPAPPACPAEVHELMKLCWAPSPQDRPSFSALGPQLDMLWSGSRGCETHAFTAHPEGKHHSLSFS

SMILES	Activity [%]
COc1ccc(-c2nc3cc(-c4csc(C(=O)NCC(C)(C)C)c4)cnc3[nH]2)cc1	94
COc1ccc(-c2nc3cc(-c4csc(C(=O)NCC(C)C)c4)cnc3[nH]2)cc1	91
COc1ccc(-c2nc3cc(-c4csc(C(=O)NCCC(C)C)c4)cnc3[nH]2)cc1	96

molecular target: Receptor tyrosine-protein kinase erbB-4 (Homo sapiens) (UniProt Q15303); assay: Inhibition of human ERBB4 assessed as residual activity at 1 uM relative to control
Sequence (Q15303 whole entry): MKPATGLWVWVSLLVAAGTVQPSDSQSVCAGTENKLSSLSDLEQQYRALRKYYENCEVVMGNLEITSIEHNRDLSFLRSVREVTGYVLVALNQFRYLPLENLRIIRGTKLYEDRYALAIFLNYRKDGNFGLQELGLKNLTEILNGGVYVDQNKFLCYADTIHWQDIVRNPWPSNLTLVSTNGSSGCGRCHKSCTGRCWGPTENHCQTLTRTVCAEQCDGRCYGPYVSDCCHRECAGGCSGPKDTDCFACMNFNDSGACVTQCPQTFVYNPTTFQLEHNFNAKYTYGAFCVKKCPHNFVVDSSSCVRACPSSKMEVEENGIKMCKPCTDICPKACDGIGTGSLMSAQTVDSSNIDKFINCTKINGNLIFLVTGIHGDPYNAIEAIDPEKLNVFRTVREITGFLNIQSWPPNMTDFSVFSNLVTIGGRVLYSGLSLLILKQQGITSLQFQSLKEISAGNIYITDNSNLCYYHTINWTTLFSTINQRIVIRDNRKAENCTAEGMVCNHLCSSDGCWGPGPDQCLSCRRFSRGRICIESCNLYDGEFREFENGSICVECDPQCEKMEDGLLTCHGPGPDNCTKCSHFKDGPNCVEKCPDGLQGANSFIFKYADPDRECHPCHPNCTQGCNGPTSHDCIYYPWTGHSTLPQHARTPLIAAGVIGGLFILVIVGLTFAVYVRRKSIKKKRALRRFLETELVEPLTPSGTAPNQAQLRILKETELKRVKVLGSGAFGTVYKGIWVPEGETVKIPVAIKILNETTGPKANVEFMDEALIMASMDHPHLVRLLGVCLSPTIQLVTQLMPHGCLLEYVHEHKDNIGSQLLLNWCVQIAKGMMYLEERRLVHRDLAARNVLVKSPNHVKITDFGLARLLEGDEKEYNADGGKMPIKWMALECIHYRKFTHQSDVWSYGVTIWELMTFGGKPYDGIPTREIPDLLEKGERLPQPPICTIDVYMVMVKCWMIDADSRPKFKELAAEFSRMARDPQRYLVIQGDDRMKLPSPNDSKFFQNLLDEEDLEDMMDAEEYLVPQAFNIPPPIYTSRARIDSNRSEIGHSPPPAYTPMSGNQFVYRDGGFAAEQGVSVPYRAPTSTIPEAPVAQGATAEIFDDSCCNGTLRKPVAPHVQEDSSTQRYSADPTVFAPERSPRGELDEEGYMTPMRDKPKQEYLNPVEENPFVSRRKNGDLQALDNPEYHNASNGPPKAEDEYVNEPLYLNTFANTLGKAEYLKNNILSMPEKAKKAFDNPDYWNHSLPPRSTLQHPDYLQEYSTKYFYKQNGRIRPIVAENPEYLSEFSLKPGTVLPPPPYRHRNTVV

SMILES	Activity [%]
COc1ccc(-c2nc3cc(-c4csc(C(=O)NCC(C)(C)C)c4)cnc3[nH]2)cc1	91
COc1ccc(-c2nc3cc(-c4csc(C(=O)NCC(C)C)c4)cnc3[nH]2)cc1	98
COc1ccc(-c2nc3cc(-c4csc(C(=O)NCCC(C)C)c4)cnc3[nH]2)cc1	93

— ChEMBL document CHEMBL3124838, “Discovery of 6-aryl-azabenzimidazoles that inhibit the TBK1/IKK-ε kinases” (Bioorg Med Chem Lett, 2014)
